For three compounds, MIC and Activity results are on record in ChEMBL document CHEMBL1150910, “Binaphthalenone glycosides from African chewing sticks, Diospyros lycioides” (1998).

One test has as its system Streptococcus mutans. Nature of the test: Antibacterial activity against Streptococcus mutans Ingbritt after 48 hrs by spectrophotometry. It counts as functional.
For a further test, the system named is Streptococcus sanguinis. As to the kind of experiment: Antibacterial activity against Streptococcus sanguis after 48 hrs by spectrophotometry. It counts as functional.
For another test, the system named is Porphyromonas gingivalis. As to the kind of experiment: Antibacterial activity against Porphyromonas gingivalis after 48 hrs by spectrophotometry. The format is functional.
The subject of another test is Prevotella intermedia. As to the kind of experiment: Antibacterial activity against Prevotella intermedia after 48 hrs by spectrophotometry. The format is functional, organism-based.

The structures appear in SMILES notation. ≈ marks a conversion by molar mass, not a printed value. Calls of active or inactive are those of the source. The calls are words filed in the database; no cut-off is given here.

`CC1=C2c3c(C)cc(O)c4c(O[C@@H]5O[C@H](CO[C@@H]6OC[C@@H](O)[C@H](O)[C@H]6O)[C@@H](O)[C@H](O)[C@H]5O)ccc(c34)OC2(O)c2c(O[C@@H]3O[C@H](CO)[C@@H](O)[C@H](O)[C@H]3O)ccc(O)c2C1=O` (stereo not given in full): the MIC against Streptococcus mutans and in the test on Streptococcus sanguinis was 1 mg/L (≈ 1.18 µM) each time. The result in the test on Porphyromonas gingivalis and with Prevotella intermedia was inactive.
Take `CC1=C2c3c(C)cc(O)c4c(O[C@@H]5O[C@H](CO[C@@H]6OC[C@@H](O)[C@H](O)[C@H]6O)[C@@H](O)[C@H](O)[C@H]5O)ccc(c34)OC2(O)c2c(O[C@@H]3O[C@H](CO[C@@H]4OC[C@@H](O)[C@H](O)[C@H]4O)[C@@H](O)[C@H](O)[C@H]3O)ccc(O)c2C1=O` (stereo not given in full): the minimum inhibitory concentration (MIC) in the test with Streptococcus mutans and with Streptococcus sanguinis was 1 mg/L (≈ 1.02 µM) throughout. Besides, the result with Porphyromonas gingivalis and with Prevotella intermedia was inactive.
For the compound `C[n+]1cc2c3c(ccc2c2ccc4cc5c(cc4c21)OCO5)OCO3` [SANGUINARIUM], the minimum inhibitory concentration (MIC) against Streptococcus mutans and in the test with Porphyromonas gingivalis was 15 mg/L each time.
